Source: patent US20020025925A1, “Combination therapy” (priority 1996, published 2002)

Columns and labels:
[1] = test system: rat adjuvant-induced arthritis; assay: Rat adjuvant-induced arthritis model; type: in vivo
Description: Mean of 10 readings was recorded.
Drugs were formulated fresh for each administration.

[2] = Ex vivo bioassay of blood concentration after oral administration; parameters: species or system rat; conditions: 10 mg/kg oral, suspension in PBS/Tween, +/- CyA 0.3 mg/kg, 0.5-24 hrs, n=6
Description: Compound 1 (10 mg/kg)±CyA (0.3 mg/kg) (in PBS/0.1% Tween 80™] was administered to healthy male Lewis rats (as above). Blood samples (0.5 ml into a syringe containing 0.1 ml acid citrate dextroset as anticoagulant) were removed from the ventrcolateral tail vein of the halothane anaestetised rat at t=prebleed, 0.5, 1, 2, 6 and 24 hrs. 3 mls methanol was added to each blood sample, mixed and centrifuged at 3000 r.p.m. for 15 minutes (using Beckman GPKR centrifuge). 2.0 ml of the methanol supernatant was removed and evaporated dry. The pellet was redisolved in 200 μl DMSO (dimethylsulphoxide). An aliquot of the solubilised pellet was assayed against fibroblast collagenase using ^14C collagen as substrate, as follows:
Samples were incubated overnight at 37° C. and undigested substrate removed by centrifugation at 11,600 r.p.m. for 15 mins (using Heraeus Biofuge 15). 200 μl of supernatant was tested by liquid scintillation spectrophotometry.
A calibration curve for the test compound of interest was run alongside the blood samples. The concentration of the test compound in the blood was then calculated from the calibration curve.

| Structure (SMILES) | effect on arthritis ([1]; Compound 1 10 mg/ml (so in the source), po, bid, days 10-20) | reducing the paw volume (swelling) ([1]; Compound 1 at doses at or below 10 mg/kg, po, bid (data not shown)) | blood concentration of Compound 1 with versus without CyA [2] | synergy with cyclosporin A ([1]; Compound 2 5 mg/kg ip, bid with cyclosporin A 0.3 mg/kg ip, bid) |
| --- | --- | --- | --- | --- |
| CCC[C@H](C(=O)NO)[C@@H](CC(C)C)C(=O)N[C@H](C(=O)NC)C(C)(C)C [Compound 1, 3R-(2,2-Dimethyl-1S-methylcarbamoyl-propylcarbamoyl)-5-methyl-2S-2-propyl-hexanohydroxamic acid] | very little or no effect | ineffective | equivalent | – |
| CNC(=O)[C@H](Cc1ccccc1)NC(=O)[C@H](CC(C)C)[C@H](CSc1cccs1)C(=O)NO [Compound 2, [4-(N-Hydroxyamino)-2R-isobutyl-3S-(thiophenylthiomethyl)succinyl]-L-phenylalanine-N-methylamide] | – | – | – | act in synergy |
